Laboratory results as given in patent US9238036B2, “Pharmaceutical uses of lanosta-8,24-dien-3-ols” (priority 2008, dated 2016).

Legend:
Assay type in all cases: in vivo
mice [1] = test: Neuropathic pain induced by partial constriction of the sciatic nerve, Von Frey filament; conditions: FIGS. 5A; for mechanical nociceptive response induced by partial constriction of the sciatic nerve, acute treatment: euphol 30 mg/kg or gabapentin 70 mg/kg oral on 4th post-operatory day, 5B; for mechanical hypernociception induced by partial constriction of the sciatic nerve, prolonged treatment: once a day for 5 days from the 6th day, 5C
Experimental: (§1) In all examples that follow, 20-30 g male mice were kept in filtered-air ventilated cages, with controlled temperature (22±2° C.) and humidity (50-60%), 12 h light/12 h dark cycles, with free access to water and food. The animals remained in the lab for an adaptation period of at least 1 hour before the pharmacological tests, held between 8:00 and 17:00 h.
(§2) The animals' nociceptive mechanical threshold was evaluated as the response frequency of paw withdrawal after ten applications of a Von Frey filament (VHF, Stoelting, Chicago, USA). The animals were individually placed in 9×7×11 cm transparent acrylic compartments over an elevated wire mesh platform, to allow access to the paw plantar surfaces. The Von Frey filament was applied to the right hind paw, watching the criteria of (1) application perpendicular to the plantar surface with enough pressure to bend the filament, so as to ensure total pressure; (2) the animals were evaluated when all four paws were accommodated on the wire mesh; (3) a paw withdrawal response was considered when the animal removed the paw entirely from the wire mesh; (4) each animal was stimulated 10 consecutive times, with 1 second duration each stimulation; (5) each paw withdrawal was considered as 10% of a response, with 10 withdrawals corresponding to 100% response.
The procedure here employed was similar to the one described for rats (Pain, 43:205-218, 1990), modified for mice ((Pain, 76:215-222, 1998), and standardized by Bortolanza et al (Eur J Pharmacol., 453:203-208, 2002). The mice were anesthetized with 7% chloral hydrate (0.6% ml/kg […]). Then the sciatic nerve was exposed on top of the thigh about the sciatic trifurcation, and ⅓-½ of the dorsal portion was tied with a suture filament no. 8. In the false-operated group, the sciatic nerve was exposed without the tying. On the 4th post-operatory day, a group of animals was treated orally with 30 mg/kg euphol, and another group treated orally with 70 mg/kg gabapentin, as a positive control. In predetermined times after the treatment (1, 2, 4, 6, 8, 24 and 48 hours) the mechanical threshold was evaluated, through stimulation with a 0.6 Von Frey filament. To assess the effect of the prolonged treatment, the animals were daily administered euphol, from the 6th day, for 5 days and the mechanical hypernociception was evaluated once a day, 4 h after the first administration, until the return of the nociceptive response similar to the control group. After that, the prolonged treatment protocol was repeated to evaluate a possible development of tolerance to the compound.

mice [2] = test: Persistent inflammatory nociception induced by CFA, Von Frey filament; conditions: FIGS. 4A; for mechanical hypernociception induced by CFA, acute treatment: euphol 30 mg/kg or gabapentin 70 mg/kg oral, 1 h before CFA, 0.6 g Von Frey, 4B
Experimental: as §1
as §2, with “response. […]” for “response.”
Animals were treated orally with 30 mg/kg euphol or 70 mg/kg gabapentin (positive control), 1 hour before the CFA injection. The mechanical hypernociception was measured through stimulation with a 0.6 g Von Frey filament in time intervals of 1, 2, 4, 6, 8, 24 and 48 hours after CFA injection, and up to the re-establishment of the nociceptive response. […] For that, animals received daily 30 mg/kg euphol, orally, for 5 days, and hypernociception was evaluated once a day, 4 hours after the first administration. Mechanical hypernociception was evaluated until the return of the painful response. […]

PKC = PKC activity on the skin of mice, ELISA; conditions: topical, FIG. 2
Experimental: as §1
This was an evaluation of the effect of the compounds of the invention upon the PKC activity, on the skin of mice. The animals received the following 100 μg/ear compositions: • a positive control, namely TPA (tetradecanoylphorbol-13-acetate), 2.5 μg/ear, in a vehicle comprising a 3:1 mixture of acetone:ethanol. • a negative control, namely the vehicle, which is a 3:1 mixture of acetone:ethanol; • A mixture of 100 μg euphol and 2.5 μg TPA, per ear, in a vehicle comprising a 3:1 mixture of acetone:ethanol.
5-member groups of mice were topically applied, in the inner surface of the ears, the compositions above. The PKC activity, before and after exposure to the tested compositions, was measured using ELISA (enzyme-linked immuno sorbent assay).

mice [3] = test: Inflammatory nociception induced by carragenan, Von Frey filament; conditions: acute; euphol 30 μg/kg oral 1 h before, dexamethasone 0.5 mg/kg s.c. 4 h before carragenan 300 μg/paw; 0.6 g Von Frey; FIGS. 3A, 3B
Experimental: as §1
as §2, with “The animals were individually placed in 9×7×11 cm transparent acrylic compartments over an elevated wire mesh platform, to allow access to the paw plantar surfaces.” left out, “response. […]” for “response.”
The animals were treated orally with euphol (30 μg/kg) one hour before the carragenan injection. […] Hypernociception was evaluated hourly during 8 hours with a 0.6 g Von Frey filament, as well as after 24 and 48 hours after carragenan injection.

mice ears = test: Ear thickness after topical TPA (irritating effect / inflammation), mice ears; conditions: euphol 100 μg/ear with TPA 2.5 μg/ear, acetone:ethanol 3:1, FIG. 1
Experimental: as §1
A characterization of the irritating effect of certain chemical compounds was effected, by comparing the results of treating mice ears topically with: • a positive control, namely TPA (tetradecanoylphorbol-13-acetate), 2.5 μg/ear, in a vehicle comprising a 3:1 mixture of acetone:ethanol. • a negative control, namely the vehicle, which is a 3:1 mixture of acetone:ethanol; • Euphol, 100 μg/ear, a compound of the invention, in a vehicle comprising a 3:1 mixture of acetone:ethanol; • A mixture of 100 μg of euphol and 2.5 μg TPA, per ear, in a vehicle comprising a 3:1 mixture of acetone:ethanol.
5-member groups of mice were topically applied, in the inner surface of the ears, the compositions above. The thickness of the ears, before and after exposure to the tested compositions, was measured using a digital micrometer, and the responses were expressed as mμ.

| SMILES | mechanical nociceptive response induced by partial constriction of the sciatic nerve, acute treatment (mice [1]) | mechanical hypernociception induced by partial constriction of the sciatic nerve, prolonged treatment (mice [1]) | mechanical hypernociception induced by CFA, acute treatment (mice [2]) | PKC activity increase induced by TPA (ELISA absorbance) (PKC; 100 μg euphol + 2.5 μg TPA per ear) | inflammatory mechanical hypernociception induced by carragenan (frequency of response, AUC) (mice [3]) | nociceptive response caused by CFA, prolonged treatment (mice [2]; once a day for 5 days, euphol 30 mg/kg oral, 4C) | inhibitory effect on ear thickness increase (inflammation) (mice ears) | PKC activity (ELISA absorbance) vs vehicle group (PKC; TPA 2.5 μg/ear) |
| --- | --- | --- | --- | --- | --- | --- | --- | --- |
| NCC1(CC(=O)O)CCCCC1 [gabapentin, reference compound] | inhibited in a significant manner | reduced in a significant manner | close to the effect obtained with gabapentin |  |  |  |  |  |
| CC(C)=CCC[C@@H](C)[C@@H]1CC[C@]2(C)C3=C(CC[C@@]12C)[C@@]1(C)CC[C@H](O)C(C)(C)[C@@H]1CC3 [euphol] | inhibited in a significant manner | reduced in a significant manner | reduced significantly | significantly reduces the increase in PKC activity induced by TPA | significantly reduced | inhibition of the nociceptive response caused by CFA during the 6 following days of treatment | significant even up to 24 hours after the treatment |  |
| CCCCCCCCCCCCCC(=O)O[C@@H]1[C@@H](C)[C@@]2(O)[C@@H](C=C(CO)C[C@]3(O)C(=O)C(C)=C[C@@H]23)[C@@H]2C(C)(C)[C@]12OC(C)=O [TPA, tetradecanoylphorbol-13-acetate, reference compound] |  |  |  |  |  |  |  | significant increase in the PKC activity |
